Entries after “also recorded” stand apart in the source; their conditions may differ. Read-outs that look alike come from different tables or passages of the source.
Tests used:
Scn [1] = molecular target: T1, Scn (Homo sapiens, UniProt P80188); details: cited from earlier work; for binding to Scn, qualitative binding assays: ref Holmes et al., 2005
T1 construct: made in house

Scn(C87S/K125A) [2] = molecular target: T2, Scn(C87S/K125A) (Homo sapiens, UniProt P80188, C107S/K145A); test: qualitative binding by co-crystallization (crystal color), Scn(C87S/K125A); details: color of complex crystals
T2 construct: made in house
T2 sequence (P80188 21-198 C107S/K145A): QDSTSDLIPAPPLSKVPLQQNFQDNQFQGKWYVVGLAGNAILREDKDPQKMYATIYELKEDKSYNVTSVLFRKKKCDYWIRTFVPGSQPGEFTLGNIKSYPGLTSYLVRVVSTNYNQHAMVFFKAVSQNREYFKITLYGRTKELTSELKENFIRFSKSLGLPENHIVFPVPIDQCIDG
Source text: (§1) Growing somewhat frustrated with our inability to fully ablate ligand binding by even fairly extensive mutation, we focused on alternate mutations involving key Pocket #1: K125A, K134A, and the combination. Both lysine side-chains contribute bracketing Coulombic, cation-π, and hydrophobic interactions to the CAM group in this calyx pocket (Fig. 1A). […] The observed < 40-fold affinity reductions were surprising, given the seemingly crucial interactions contributed by these two side-chains bracketing the key pocket.
(§2) Fig. 6 Effects of mutating proximal calyx-lining residues on ligand recognition. (A) Superpositions of the three Fe-ENT complexes in the crystallographic AU of the complex with the Scn(C87S/K125A) mutant are shown in a stereoview, oriented and styled as in Fig. 3C. […] (C) Superpositions of the three Fe-ENT complexes in the crystallographic AU of the complex with the Scn(C87S/K134A) mutant are shown in a stereoview. […]
(§3) Protein biochemistry and crystallography: Mutations were made as previously described ([Abergel et al., 2008], [Goetz et al., 2002]). […] Initial Scn structure phases were calculated from the 1L6M.pdb structure and optimized by rigid-body refinement using REFMAC5 ([Murshudov et al., 1997]), or by molecular replacement using 1L6M.pdb as the search model with PHASER ([McCoy et al., 2007]). […]

Scn [3] = molecular target: T1, Scn; details: ref Abergel et al., 2006a, cited from earlier work
Scn [4] = molecular target: Scn; design: method as in Li et al., 2015; details: ref Li et al., 2015; cited from earlier work
Scn(C87S/Y106F) = molecular target: Scn(C87S/Y106F); design: method as in Abergel et al., 2008; details: Y106F mutation; ref Abergel et al., 2008; cited from earlier work
Scn(C87S/W79A/R81A) = molecular target: Scn(C87S/W79A/R81A); design: method as in Abergel et al., 2008; details: W79A/R81A mutation; ref Abergel et al., 2008; cited from earlier work
Scn(C87S/K134A) [5] = molecular target: T3, Scn(C87S/K134A) (Homo sapiens, UniProt P80188, C107S/K154A); test: qualitative binding by co-crystallization (crystal color), Scn(C87S/K134A); details: color of complex crystals
T3 construct: made in house
T3 sequence (P80188 21-198 C107S/K154A): as the sequence (P80188 21-198 C107S/K145A) above, with A125K, K134A counted along it
Source text: as §1, §2, §3

Scn(C87S/K134A) [6] = molecular target: T3, Scn(C87S/K134A); test: FQ binding assay, Scn(C87S/K134A) mutant
Source text: as §1
as §3, with “2002]). All clones were confirmed by DNA sequencing. Scn proteins were expressed and purified as previously described ([Abergel et al., 2008], [Bundgaard et al., 1994], [Goetz et al., 2002]). YfiY was expressed and purified as previously described. All crystals were grown using hanging drop vapor diffusion at room temperature.” for “2002]).”

Scn(C87S/K125A) [7] = molecular target: T2, Scn(C87S/K125A); test: FQ binding assay, Scn(C87S/K125A) mutant
Source text: as §1
as §3, with “2002]). All clones were confirmed by DNA sequencing. Scn proteins were expressed and purified as previously described ([Abergel et al., 2008], [Bundgaard et al., 1994], [Goetz et al., 2002]). YfiY was expressed and purified as previously described. All crystals were grown using hanging drop vapor diffusion at room temperature.” for “2002]).”

Scn(C87S/K125A/K134A) = molecular target: T4, Scn(C87S/K125A/K134A) (Homo sapiens, UniProt P80188, C107S/K145A/K154A); test: crystallographic analysis and qualitative co-crystallization binding trials, Scn(C87S/K125A/K134A); details: crystals grown in the presence of Fe-ENT
T4 construct: made in house
T4 sequence (P80188 21-198 C107S/K145A/K154A): as the sequence (P80188 21-198 C107S/K145A) above, with K134A counted along it

human Scn (C87S) = molecular target: T5, human Scn (C87S) (Homo sapiens, UniProt P80188, C107S); test: crystallographic test of candidate ligand binding in the Scn calyx
T5 construct: made in house
T5 sequence (P80188 21-198 C107S): as the sequence (P80188 21-198 C107S/K145A) above, with A125K counted along it
Source text: Pseudomonas aeruginosa is a Gram-negative γ-proteobacterium which can cause acute and chronic infections ranging from septicemia, urinary infections, wound colonization, and chronic lung colonization in cystic fibrosis patients ([Cornelis and Dingemans, 2013]). P. aeruginosa produces two chemically-distinct siderophores, pyoverdine (PVD) and PCH, with relatively high or low affinities for iron, respectively. […] The quite large PVD structure would also not be expected to fit within the Scn calyx, nor would the structure of PCH-chelated iron be expected to fit within the key binding pocket, due to tight steric constraints around the iron center imposed by K125 and K134. A preliminary crystal structure of a Scn/PCH complex (3U03.pdb) was deposited in the Protein Databank (PDB, ([Berman et al., 2000])) by a structural genomics consortium. […] First, using the deposited diffraction data, it was readily apparent that the PCH ligand as modeled sat in negative electron density in difference Fourier syntheses (Fig. 7A). Second, this particular crystal form of Scn usually contains three molecules in the asymmetric unit, though only two had been modeled in the deposited structure. Using the deposited diffraction data, we re-refined the structure (Table 2), successfully placing the third Scn molecule and improving refinement statistics: Rfree/Rwork values decreased from 0.303/0.269 (3U03.pdb) to 0.253/0.235 (Table 2).
Though hexadentate catecholate siderophores have much higher complexation constants, bidentate catecholamine hormones (e.g. norepinephrine, NE) are capable of chelating iron in 3:1 complexes, and can serve to promote bacterial growth, at least in vitro ([O'Donnell et al., 2006]). […] However, no co-crystal structure was or has been subsequently reported, and the observed crystal habit was distinct from the typical tetragonal forms observed for Scn (e.g., Fig. 6B, D, and F). […] In order to resolve this discrepancy, we undertook to directly determine the Fe-NE/Scn co-crystal structure. […]

P. aeruginosa = tested on: P. aeruginosa; design: method as in Correnti et al., 2011; details: in vitro; ref Correnti et al., 2011; cited from earlier work

Q: With `O=C(O)c1ccc(O)c(O)c1` [3,4-DHBA] as the molecule, how does the “binding to Scn” value (Scn [1]; ref Correnti et al., 2012) read?
A: do not bind

Q: Which results are given for `O=C(N[C@H]1COC(=O)[C@@H](NC(=O)c2cccc(O)c2O)COC(=O)[C@@H](NC(=O)c2cccc(O)c2O)COC1=O)c1cccc(O)c1O.[Fe]` [Fe-ENT]?
A: qualitative binding by co-crystallization (Scn(C87S/K125A) [2]): binding qualitatively confirmed; Kd (Scn [3]; wild-type Scn, Abergel et al., 2008, Goetz et al., 2002): 0.0004 µM; KD by ITC (Scn [4]): micromolar; Kd (Scn(C87S/Y106F)): 0.02 µM; Kd (Scn(C87S/W79A/R81A)): 0.071 µM; qualitative binding by co-crystallization (Scn(C87S/K134A) [5]): binding also qualitatively confirmed; Kd (Scn(C87S/K134A) [6]; FQ, huScn (K134A)): 0.01 ± 0.002 µM; affinity reduction versus wild-type Scn (Scn(C87S/K134A) [6]; K134A mutation): < 40 fold; Kd (Scn(C87S/K125A) [7]; FQ, huScn (K125A)): 0.015 ± 0.003 µM; affinity reduction versus wild-type Scn (Scn(C87S/K125A) [7]; K125A mutation): < 40 fold; ligand binding (crystal structure and co-crystallization trials) (Scn(C87S/K125A/K134A)): lack of ligand binding; also recorded: fully ablating ligand binding

Q: What does the source list for `NC[C@H](O)c1ccc(O)c(O)c1` [NE, norepinephrine]?
A: ligand electron density in difference Fourier syntheses (human Scn (C87S); co-crystallized with 2:1:1 2,3-DHBA:NE:iron complexes): did not show difference features distinct from the previously-determined Scn:2,3-DHBA:iron complex structure; ligand electron density in difference Fourier syntheses (human Scn (C87S); crystals grown with stoichiometric 3:1 NE:iron mixtures): did not show electron density features assignable to iron or ligand atoms

Q: With `CN1[C@@H]([C@H]2CSC(c3ccccc3O)=N2)SC[C@H]1C(=O)O` [PCH, pyochelin] as the molecule, how does the “binding to Scn, qualitative binding assays” value (Scn [1]) read?
A: does not appreciably bind

Q: And the “ligand binding in calyx (re-refined crystal structure)” value (human Scn (C87S); re-refinement of 3U03.pdb diffraction data, under these crystallization conditions)?
A: does not bind

Q: With `O=C(N[C@H]1COC(=O)[C@@H](NC(=O)c2cccc(O)c2O)COC(=O)[C@@H](NC(=O)c2cccc(O)c2O)COC1=O)c1cccc(O)c1O` [apo-ENT, enterobactin/enterochelin] as the molecule, how does the Kd (Scn [3]; apo ligand (no iron)) read?
A: 0.0036 µM

Q: With pyoverdine [PVD] as the molecule, how does the “binding to Scn, qualitative binding assays” value (Scn [1]) read?
A: does not appreciably bind

B1: Scn: glycoprotein Siderocalin, innate immune system protein with bacteriostatic activity (protein, UniProt P80188 21-198, looked up)
Neutrophil …: QDSTSDLIPAPPLSKVPLQQNFQDNQFQGKWYVVGLAGNAILREDKDPQKMYATIYELKEDKSYNVTSVLFRKKKCDYWIRTFVPGCQPGEFTLGNIKSYPGLTSYLVRVVSTNYNQHAMVFFKKVSQNREYFKITLYGRTKELTSELKENFIRFSKSLGLPENHIVFPVPIDQCIDG
Q: Which “growth arrest of P. aeruginosa” value (P. aeruginosa) does the source give for B1 here?
A: does not arrest the growth

Source: PMC7337064, “Parsing the functional specificity of Siderocalin/Lipocalin 2/NGAL for siderophores and related small-molecule ligands” (Journal of Structural Biology: X, 2019)
